Source: ChEMBL document CHEMBL1121673, “Diuretic agents related to indapamide. 1. Synthesis and activity of 1-substituted 2-(4-chloro-3-sulfamoylbenzamido)isoindolines” (1981)

Assays:
Type in all cases: functional
Rattus norvegicus [1] = assay: Amount of potassium ions excreted during 4 hr after oral administration of 5 mg/kg of the test agent (protocol B) on 5 male and female rats
[2] = Ratio of amount of Na+ excreted to amount of K+ excreted in urine of rat of protocol A-1 test
[3] = Ratio of amount of Na+ excreted to amount of K+ excreted in urine of water-loaded rats
Rattus norvegicus [4] = assay: Amount of potassium ions excreted during 18 hours after single administration of 5 mg/kg of the test agent (protocol A-2) on 6 rats
Rattus norvegicus [5] = assay: Amount of sodium ions excreted during 18 hours after single administration of 5 mg/kg of the test agent (protocol A-1) on 6 rats
Rattus norvegicus [6] = assay: Amount of potassium ions excreted during 18 hours after single administration of 5 mg/kg of the test agent (protocol A-1) on 6 rats
Rattus norvegicus [7] = assay: Total volume of urine excreted during 4 hr after oral administration of 5 mg/kg of the test agent (protocol B) on 5 male and female rats
Rattus norvegicus [8] = assay: Amount of sodium ions excreted during 4 hr after oral administration of 5 mg/kg of the test agent (protocol B) on 5 male and female rats
Rattus norvegicus [9] = assay: Total volume of urine excreted during 18 hours after single administration of 5 mg/kg of the test agent (protocol A-2) on 6 rats
Rattus norvegicus [10] = assay: Amount of sodium ions excreted during 18 hours after single administration of 5 mg/kg of the test agent (protocol A-2) on 6 rats
[11] = Ratio of amount of Na+ excreted to amount of K+ excreted in urine of rat of protocol A-2 test
Rattus norvegicus [12] = assay: Total volume of urine excreted during 18 hours after single administration of 5 mg/kg of the test agent (protocol A-1) on 6 rats
Rattus norvegicus [13] = assay: Amount of sodium ions excreted during 18 hours after single administration of 5 mg/kg of the test agent (protocol A-2) on 11 rats
Rattus norvegicus [14] = assay: Amount of potassium ions excreted during 18 hours after single administration of 5 mg/kg of the test agent (protocol A-2) on 11 rats
Rattus norvegicus [15] = assay: Total volume of urine excreted during 18 hours after single administration of 5 mg/kg of the test agent (protocol A-2) on 11 rats

Structure (SMILES)	Urine K+ (Rattus norvegicus [1])	Ratio [2]	Ratio [3]	Urine K+ (Rattus norvegicus [4])	Urine Na+ (Rattus norvegicus [5])	Urine K+ (Rattus norvegicus [6])	Urine (Rattus norvegicus [7])	Urine Na+ (Rattus norvegicus [8])	Urine (Rattus norvegicus [9])	Urine Na+ (Rattus norvegicus [10])	Ratio [11]	Urine (Rattus norvegicus [12])	Urine Na+ (Rattus norvegicus [13])	Urine K+ (Rattus norvegicus [14])	Urine (Rattus norvegicus [15])
CC1Cc2ccccc2N1NC(=O)c1ccc(Cl)c(S(N)(=O)=O)c1 (stereo not drawn) [INDAPAMIDE]	0.2686 m equiv	1.143	2.738	2.78 m equiv	2.563 m equiv	2.198 m equiv	130.6 mL	0.705 m equiv	16.67 mL	2.947 m equiv	1.0526	12.83 mL			
NS(=O)(=O)c1cc(C(=O)NN2Cc3ccccc3C2C(=O)O)ccc1Cl (stereo not drawn)	0.1305 m equiv	0.984	0.855		1.59 m equiv	1.569 m equiv	87.1 mL	0.109 m equiv			1.0809	9.36 mL	2.199 m equiv	2.075 m equiv	9.36 mL
CC1c2ccccc2CN1NC(=O)c1ccc(Cl)c(S(N)(=O)=O)c1 (stereo not drawn) [ZIDAPAMIDE]	0.2398 m equiv	1.128	3.11	2.56 m equiv	2.193 m equiv	1.976 m equiv	127 mL	0.6927 m equiv	16.17 mL	3.058 m equiv	1.2204	11.67 mL			
NS(=O)(=O)c1cc(C(=O)NN2Cc3ccccc3C2CO)ccc1Cl (stereo not drawn)	0.1657 m equiv	1.084	1.638		1.622 m equiv	1.486 m equiv	106 mL	0.2629 m equiv			0.943	11.17 mL	1.414 m equiv	1.512 m equiv	11.45 mL
